Test results as given in patent US4289777A, “Quinolonecarboxylic acid derivatives and pharmaceutical preparations thereof for treatment of an allergic disease of the respiratory tract” (Schering, Aktiengesellschaft, priority 1978, dated 1981).
Converted amounts (≈) assume the structure as drawn. Counter-ions that a name gives are not always drawn. Like-named read-outs stand apart in the source and are kept apart here.

Tests used:
[1] = test system: carrageenin test; assay: carrageenin test, antiinflammatory effect; type: in vivo
Source text: The inflammation-inhibitory effect can be measured by the carrageenin test (Winter, C. A., E. A. Risley and G. W. Nuss, Proc. Soc. Exp. Biol. Med. 111: 544-547 [1962]).

[2] = test system: passive cutaneous anaphylaxis in rats (PCA), mediator liberation; assay: passive cutaneous anaphylaxis in rats (PCA), inhibition of allergic reaction; type: in vivo; conditions: iv, rat PCA, i.v.
Description: For this purpose, rats are passively sensitized by the intracutaneous injection of various dilutions (1:8 and 1:16) of a standardized IgE-containing hyperimmune serum. After 48 hours, the compound to be tested, dissolved as the sodium salt in a physiological NaCl solution, and ovalbumin as the allergen, combined with a dye to better measure the local allergic reaction, are administered intravenously.
The measurement determines the inhibition of the allergic reaction in the presence of the test compound as compared with the allergic reaction without the inhibiting agent.

[3] = test system: Staphylococcus aureus 30-53; assay: in vitro series dilution test, antibacterial effect; type: cell-based; conditions: 3053; Staphylococcus aureus 30-53, in vitro; read-out: Minimum Inhibitory Concentration
Source text: (§1) The antibacterial effect can be measured in vitro in a series dilution test.

[4] = test system: Staphylococcus aureus 30-3; assay: as above; type: cell-based; conditions: 303; Staphylococcus aureus 30-3, in vitro; read-out: Minimum Inhibitory Concentration
Source text: as §1

[5] = test system: Staphylococcus aureus 30-2; assay: as above; type: cell-based; conditions: 302; Staphylococcus aureus 30-2, in vitro; read-out: Minimum Inhibitory Concentration
Source text: as §1

[6] = test system: Staphylococcus aureus 30-107; assay: as above; type: cell-based; conditions: 30107; Staphylococcus aureus 30-107, in vitro; read-out: Minimum Inhibitory Concentration
Source text: as §1

[7] = test system: Staphylococcus aureus 30-8; assay: as above; type: cell-based; conditions: 308; Staphylococcus aureus 30-8, in vitro; read-out: Minimum Inhibitory Concentration
Source text: as §1

[8] = test system: Staphylococcus aureus 30-109; assay: as above; type: cell-based; conditions: 30109; Staphylococcus aureus 30-109, in vitro; read-out: Minimum Inhibitory Concentration
Source text: as §1

[9] = test system: Staphylococcus aureus 30-64; assay: as above; type: cell-based; conditions: 3064; Staphylococcus aureus 30-64, in vitro; read-out: Minimum Inhibitory Concentration
Source text: as §1

[10] = test system: Diplococcus pneumoniae; assay: as above; type: cell-based; conditions: Streptococcus pneumoniae, read-out: Minimum Inhibitory Concentration
Source text: as §1

[11] = test system: Diplococcus pneumoniae and a series of strains of Staphylococcus aureus; assay: in vitro series dilution test, antibacterial effect (summary over all bacteria); type: cell-based; conditions: in words
Source text: as §1

[12] = test system: mast cells of the lungs; conditions: upon inhalation; J. Med. Chem. 15: 583 [1972]; cited from earlier work
[13] = IgE serum dilution 1:8, dissolved as the sodium salt, read-out: % Inhibition, IgE 1:8
[14] = IgE serum dilution 1:16, dissolved as the sodium salt, read-out: % Inhibition, IgE 1:16

Compound | inhibition at 10 mg/kg [2, 13] [%] | inhibition at 10 mg/kg [2, 14] [%] | inhibition at 5 mg/kg [2, 13] [%] | inhibition at 5 mg/kg [2, 14] [%] | MIC [3] [µg/mL] | MIC [4] [µg/mL] | MIC [5] [µg/mL] | MIC [6] [µg/mL] | MIC [7] [µg/mL] | MIC [8] [µg/mL] | MIC [9] [µg/mL] | MIC [10] [µg/mL] | also measured
1,3-Bis(1-ethoxy-3-carboxy-1,4-dihydro-4-oxo-7-quinolyloxy)-2-propanol | – | – | – | – | – | – | – | – | – | – | – | – | % Inhibition ([1]; i.v., 10 mg./kg.): 44%; % Inhibition ([1]; p.o., 75 mg./kg.): 28%
CCCCn1cc(C(=O)O)c(=O)c2ccc(OCC(O)COc3ccc4c(=O)c(C(=O)O)cn(CCCC)c4c3)cc21 [1,3-Bis(1-butyl-3-carboxy-1,4-dihydro-4-oxo-7-quinolyloxy)-2-propanol] | 71 | 85 | – | – | – | – | – | – | – | – | – | – | –
CCn1cc(C(=O)O)c(=O)c2ccc(OCC(O)COc3ccc4c(=O)c(C(=O)O)cn(CC)c4c3)cc21 [1,3-Bis(1-ethyl-3-carboxy-1,4-dihydro-4-oxo-7-quinolyloxy)-2-propanol] | 84 | 90 | 59 | 69 | 50 (≈ 95.7 µM) | 12.5 (≈ 23.9 µM) | 25 (≈ 47.8 µM) | 50 (≈ 95.7 µM) | 12.5 (≈ 23.9 µM) | 25 (≈ 47.8 µM) | 50 (≈ 95.7 µM) | 50 (≈ 95.7 µM) | –
Cn1cc(C(=O)O)c(=O)c2ccc(OCC(O)COc3ccc4c(=O)c(C(=O)O)cn(C)c4c3)cc21 [1,3-Bis(3-carboxy-1,4-dihydro-1-methyl-4-oxo-7-quinolyloxy)-2-propanol] | – | – | 62 | 69 | – | – | – | – | – | – | – | – | –
O=C(O)c1cc(=O)c2c(OCC(O)COc3cccc4oc(C(=O)O)cc(=O)c34)cccc2o1 [Cromoglycic Acid, reference compound] | 60 | 84 | 63 | 67 | > 100 | > 100 | > 100 | > 100 | > 100 | > 100 | > 100 | > 100 | antiinflammatory activity ([1]; in words): only an extremely weak efficacy, or even no corresponding efficacy at all; inhibition at 10 mg/kg ([1]; iv, 10 mg./kg.): 10%; inhibition at 75 mg/kg ([1]; po, 75 mg./kg.): 0%; antibacterial activity [11]: ineffective against all bacteria investigated
O=C(O)c1cc(=O)c2c(OCC(O)COc3cccc4oc(C(=O)O)cc(=O)c34)cccc2o1 [sodium salt of cromoglycic acid] | – | – | – | – | – | – | – | – | – | – | – | – | inhibition of liberation of mediators triggering bronchoconstriction, such as histamine and SRS-A [12]: inhibit the liberation of mediators triggering bronchoconstriction
